Experimental data from paper PMC9216188, “Expanding the Biological Properties of Alkannins and Shikonins: Their Impact on Adipogenesis and Life Expectancy in Nematodes” (Frontiers in Pharmacology, 2022).
Entries after “also recorded” stand apart in the source; their conditions may differ. Where two headings read alike, the source gives them in different places.

Columns and labels:
[1] = test system: PPAR-γ; assay: RT-PCR relative mRNA expression of PPAR-γ in differentiated 3T3-L1 cells; type: cell-based, Mouse; conditions: day 11
Method: (§1) 3T3-L1 pre-adipocytes were differentiated into mature adipocytes following the aforementioned differentiation protocol (vide infra). Briefly, pre-adipocytes were treated with either 10 ng/ml of insulin and/or hydroxynaphthoquinones (100 nM or 1 μΜ). The tested compounds were first dissolved in DMSO and subsequently in the culture medium, with the final concentration of DMSO not exceeding 0.1% v/v. The initial stock concentration was 50 mM. Cells treated with insulin were considered as positive control whereas untreated cells were included as vehicle control. On the 11th day of the differentiation process, cell differentiation was assessed and validated by oil red O staining, as described elsewhere ([Tsave et al., 2016]). Further validation of successful adipogenesis was also confirmed by the relative expression of closely related biomarkers PPAR-γ and adiponectin (ADIPOQ).
(§2) Total RNA was extracted from cells on the 11th day of the differentiation protocol, using TRItidy-G reagent. The concentration and purity (absorbance ratio 260/280) of the extracted RNA were measured with a NanoDrop™ 2000c spectrophotometer (Thermo Fisher Scientific, United States). Synthesis of cDNA was performed with the iScript cDNA synthesis kit according to manufacturer instructions. RT-PCR was run on Rotor Gene Q (Qiagen) using the iTaq Universal SYBR Green Supermix and appropriate reagents (Qiagen, United States).
(§3) Customized primers were used from Qiagen for adiponectin (Mm_Adipoq_1_SG, NM_009605, Q01048047), GAPDH (Mm Gapdh_3_SG, QT01658692) and mPPAR-γ forward 5′-GTCAGCGACTGGGACTTTTC-3′ and reverse 5′-CGAGGACATCCAAGACAACC-3’.

[2] = test system: 3T3-L1 pre-adipocytes; assay: Differentiation of 3T3-L1 cells, lipid quantification by Oil Red O staining; type: cell-based, Mouse; conditions: for lipid accumulation / fold decrease in lipid accumulation / lipid accumulation (formed lipids): 1 μM, ORO stain, day 11; for lipid accumulation: absence of insulin; for fold decrease in lipid accumulation / lipid accumulation (formed lipids): in the presence of insulin
Method: (§4) Mouse fibroblast 3T3-L1 preadipocytes were kindly donated by the Laboratory of Inorganic Chemistry, School of Chemical Engineering, Aristotle University of Thessaloniki (Thessaloniki, Greece) and cultured in 75 cm^2 cell culture flasks in high-glucose DMEM supplemented with 10% FBS, 100 units/mL penicillin and […] streptomycin at 37°C in 5% CO2 and standard humidity. Medium was changed three times per week, until cells reached confluence. Two days post-confluency (day 0), cells were induced to differentiate by treating them with a differentiation/induction medium containing DMEM supplemented with 0.5 mM IBMX, 1 μM DEX, […] of insulin, and 10% FBS. Three days later (day 3), the medium was replaced with DMEM containing 10% FBS and 1 μg/ml insulin for two more days, after which (day 5) the medium was changed to DMEM with 10% FBS. The medium was replaced every 2 days until cells were harvested on day 11 ([Tsave et al., 2018]).
as §1
3T3-L1 preadipocytes were seeded in 24-well plates at a density of 3.5 × 10^4 cells per well and differentiated as described above. On the 11th day, cells were washed three times with sterile PBS, fixed with formaldehyde 3.7%–4.0% for 20 min and stained with Oil Red O (ORO) solution for 10 min. Next, cells were washed with double distilled water (ddH2O) and stained lipids were observed and imaged under an inverted microscope, as described elsewhere ([Tsave et al., 2016]). The analysis and quantification of lipid accumulation—based on the amount of ORO dye—was performed by using ImageJ software (National Institutes of Health, United States). In brief, the RGB images with the stained lipids were converted to 8-bit grayscale (Image → Type → 8-bit). Next, a manual threshold was set (Image → Adjust → Threshold) for each sample and the stained areas were measured (Analyze → Measure) ([Mehlem et al., 2013]).

[3] = test system: ADIPOQ; assay: RT-PCR relative mRNA expression of ADIPOQ in differentiated 3T3-L1 cells; type: cell-based, Mouse; conditions: day 11
Method: as §1, §2, §3

[4] = Cell viability of undifferentiated 3T3-L1 cells (CellTiter-Glo); type: cell-based, Mouse; conditions: mouse; 0.01, 0.1, and 1 μM, 24 h; read-out: cell viability (% of untreated cells)
Method: as §4
(§5) Viability of undifferentiated 3T3-L1 cells upon treatment with various concentrations of the hydroxynaphthoquinones was assessed using CellTiter-Glo assay in opaque-walled 96-well plates. This method utilizes the luciferase reaction for quantifying adenosine triphosphate (ATP), which is an indicator of cellular metabolic activity. Through the luciferase reaction, luminescence is generated in proportion to the amount of available ATP. […] Briefly, cells were seeded in a 96-well plate at a density of 3.5 × 10^3 cells and a total volume of 100 μl per well. After 24 h incubation, cells were treated with different concentrations (10 nM–10 μΜ) of the hydroxynaphthoquinones for 24 and 48 h. After the respective incubation times, cells in each condition were treated with a volume of the reagent equal to the volume of cell culture medium present in each well. The luminescence was recorded with a Glomax 96 microplate luminometer (Promega Corporation, United States). Untreated cells served as control samples. Each assay was performed three times, with at least three replicates each.
(§6) All tested compounds were previously dissolved in DMSO. The final concentration of DMSO in each well was lower than 0.1%. To confirm that DMSO at that concentration was inert, a screening was performed at various concentrations (0.00002%–2%) and cell viability was assessed. Cell viability was expressed as the percentage of viability observed in each compound, compared to the untreated cells.

[5] = test system: 3T3-L1 pre-adipocytes; assay: as above; type: cell-based, Mouse; conditions: for inhibition of cell viability: 4 μM; for IC50: Mus musculus, read-out: IC50 (cell viability)
Method: as §4, §5, §6

[6] = test system: C. elegans N2 wild-type; assay: C. elegans survival assay (nematocidal activity); type: in vivo, Caenorhabditis elegans; conditions: for % Survival after 10 days ±SD: N2 worms
Method: Caenorhabditis elegans wild-type var. Bristol N2, SS104 [glp-4 (bn2ts)] and Escherichia coli OP50 were provided by the Caenorhabditis Genetics Center (University of Minnesota, United States). Media and NGM agar plates have been prepared as described before ([Zwirchmayr et al., 2020]). OP50 were grown in LB medium for 8 h at 37°C, then harvested by centrifugation, washed twice with ddH2O and suspended in S-complete medium at 100 mg/ml. Worms were maintained on NGM agar plates inoculated with OP50. Synchronized cultures were prepared by egg-prep method ([Porta-de-la-Riva et al., 2012]) and experiments started at the […].
The survival assay was performed as described before: Briefly, a suspension of 5–18 synchronized L1 larvae (N2 wild-type) in S-complete medium were manually seeded into 96-well plates. OP50 at a concentration of 6 mg/ml was added immediately and worms were kept at 25°C. The following day, when all worms reached the L3 stage, the sterilizing-agent 5-Fluorodeoxyuridine (FUdR; 0.12 mM final; Sigma-Aldrich, F0503) was added to keep the population synchronized. The next day, samples were added in triplicate wells to the adult worm culture with DMSO as a carrier at a final concentration of 1%. The number of living worms in each well was counted on day 0, 3, 5, 7 and 10 of the treatment. The worms were oxygenized every 3 days and OP50 were added on day 5 of adulthood to prevent starvation. Results of three parallel experiments are presented as bar charts and are given as the mean survival rate of worms.

[7] = test system: C. elegans; set-up: method as in Hunt et al., 2011; conditions: 100 to 500 μM, applied to solid agar medium ref Hunt et al., 2011; cited from earlier work
[8] = test system: PPAR-γ; set-up: method as in Lee et al., 2010; Gwon et al., 2013; conditions: 0.5–2 μM ref Lee et al., 2010; Gwon et al., 2013; cited from earlier work
[9] = test system: 3T3-L1 pre-adipocytes; set-up: method as in Lee et al., 2010; Gwon et al., 2013; Ha et al., 2016; conditions: 0.5–2 μM ref Lee et al., 2010; Gwon et al., 2013; Ha et al., 2016; cited from earlier work
[10] = test system: ADIPOQ; set-up: method as in Lee H.-Y. et al., 2009; conditions: 2 μM ref Lee H.-Y. et al., 2009; cited from earlier work
[11] = compound alone, absence of insulin

Molecule | PPAR-γ mRNA expression, fold increase ([1]; compound together with insulin) | lipid accumulation [2] | ADIPOQ mRNA expression, fold increase [3, 11] | ADIPOQ mRNA expression, fold increase ([3]; compound together with insulin) | IC50 ([5]; 3T3-L1 cells, 24 h) | lipid accumulation (formed lipids) [2] | other results
CC(C)=CC[C@H](O)C1=CC(=O)c2c(O)ccc(O)c2C1=O [A, Alkannin] | 0.20 fold | 1.56% | strongest inhibition | not showing any increase at all | < 3 µM | – | fold decrease in lipid accumulation [2]: 37 fold; inhibition of the formation of lipids ([2]; in the presence of insulin (Figure 4)): ~100%; viability [4]: > 146%; inhibition of cell viability ([5]; 24 h): more than 90%
CC(=O)O[C@H](CC=C(C)C)C1=CC(=O)c2c(O)ccc(O)c2C1=O [ACS, Acetyl-shikonin] | – | – | – | – | – | – | concentrations showing reduced cell viability ([5]; 24 h): > 4 µM
CC(C)=CC[C@@H](OC(=O)C=C(C)C)C1=CC(=O)c2c(O)ccc(O)c2C1=O [DMAS, β,β-Dimethyl-acryl-shikonin] | 4.71 fold | 15.65% | 3.03 fold | 3.24 fold | – | 9.24% | PPAR-γ mRNA expression, fold increase [1, 11]: 8.37 fold; % Survival after 10 days ±SD ([6]; 15 μg/ml): 73.87 ± 1.61 %; % Survival after 10 days ±SD ([6]; 60 μg/ml): 62.22 ± 17.36 %; concentrations showing reduced cell viability ([5]; mouse, 24 h): > 4 µM
CC(C)=CCCC1=CC(=O)c2c(O)ccc(O)c2C1=O [DS, Deoxy-shikonin] | 5.08 fold | 1.78% | strongest inhibition; also recorded: complete impediment of ADIPOQ expression | 4.85 fold | – | exceeded 10% | concentrations showing reduced cell viability ([5]; 24 h): > 4 µM
CC(C)=CC[C@@H](OC(=O)CC(C)C)C1=CC(=O)c2c(O)ccc(O)c2C1=O [IVS, Isovaleryl-shikonin] | – | – | – | – | 8.66 µM | – | concentrations showing reduced cell viability ([5]; mouse, 24 h): > 4 µM
O=C1C=CC(=O)c2c(O)ccc(O)c21 [NAPH, Naphthazarin] | 5.2 fold | 5.74% | 1.79 fold | 2.13 fold | – | exceeded 10% | effect on lifespan of C. elegans [7]: extend the lifespan; % Survival after 10 days ±SD ([6]; 15 μg/ml): 0.00 ± 0.00 %; worms surviving the first 3 days of treatment ([6]; 15 μg/ml, day 3): 50%; % Survival after 10 days ±SD ([6]; 60 μg/ml): 0.00 ± 0.00 %; nematodes dead at the third day of treatment ([6]; 60 μg/ml, day 3): ~100%; IC50 ([5]; 3T3-L1, 24 h): < 3 µM
CC(C)=CC[C@@H](O)C1=CC(=O)c2c(O)ccc(O)c2C1=O [S, Shikonin] | 1.27 fold | 2.58% | 2.4 fold | < 1 fold | < 3 µM | – | effect on expression of PPAR-γ [8]: significantly inhibited; effect on adipogenesis [9]: inhibit adipogenesis; fold decrease in lipid accumulation [2]: 22 fold; viability [4]: > 146%; inhibition of cell viability ([5]; 24 h): more than 90%; effect on ADIPOQ expression [10]: strongly inhibit
CC(C)=CC[C@@H](OC(=O)CC(C)(C)O)C1=CC(=O)c2c(O)ccc(O)c2C1=O [β-hydroxy-isovaleryl-shikonin, reference compound] | – | – | – | – | – | – | effect on adipogenesis [9]: inhibit adipogenesis
insulin: human recombinant insulin, positive control of differentiation [reference compound] | – | – | – | – | – | – | PPAR-γ mRNA expression, fold increase ([1]; positive control sample (insulin group)): 10.78 fold; ADIPOQ mRNA expression, fold increase ([3]; positive control sample (insulin)): 8.67 fold
